Results reported in US8680122B2, “Substituted pyrrolones as allosteric modulators of glucokinase” (Janssen Pharmacetica N.V., priority 2005, dated 2014).

Tests used:
[1] = target: T1, Liver GK (Homo sapiens, UniProt P35557); assay: Glucokinase enzyme assay, liver GK; assay type: biochemical; details: for EC50: concentration that produces 50% activation above the vehicle control; for EC100%: concentration that produces 100% activation above the vehicle control; for activation at 50 µM: percentage increase in GK activity above vehicle control, compound 50 μM, 12 mM glucose
T1 construct: (His)6; made in house; host or cells: Escherichia coli
T1 sequence (P35557 1-466 isoform P35557-2): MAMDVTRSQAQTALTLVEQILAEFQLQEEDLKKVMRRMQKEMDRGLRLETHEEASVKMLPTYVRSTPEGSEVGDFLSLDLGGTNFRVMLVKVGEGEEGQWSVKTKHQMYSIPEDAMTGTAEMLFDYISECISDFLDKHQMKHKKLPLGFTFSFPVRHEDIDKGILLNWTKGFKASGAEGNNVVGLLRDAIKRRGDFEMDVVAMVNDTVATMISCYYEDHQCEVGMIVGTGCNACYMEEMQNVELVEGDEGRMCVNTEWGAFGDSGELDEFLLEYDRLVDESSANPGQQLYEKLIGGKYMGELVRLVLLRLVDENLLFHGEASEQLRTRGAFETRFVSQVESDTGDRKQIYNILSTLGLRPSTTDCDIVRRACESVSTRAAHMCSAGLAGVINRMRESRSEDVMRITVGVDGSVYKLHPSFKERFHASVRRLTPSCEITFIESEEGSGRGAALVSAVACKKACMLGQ
Source text: (§1) An enzymatic Glucokinase (GK) assay using purified recombinant human liver/pancreas enzyme was used to evaluate the effects of potential small molecule modulators.
(§2) In this assay, GK catalyzes glucose phosphorylation in the presence of ATP. The product of this reaction, glucose-6-phosphate, was then oxidized by an excess of glucose-6-phosphate dehydrogenase to produce gluconate-6-phosphate with concomitant reduction of nicotinamide adenine dinucleotide (NAD). […] Human GK (Liver/Pancreas) was expressed in Escherichia coli as a (His) 6-tagged fusion protein and was purified by metal chelate affinity chromatography. The assay was performed in a final incubation volume of 80 μl in a 96-well clear low UV absorption plates. The incubation mixture consisted of 25 mM HEPES, 2 mM MgSO4, 1 mM dithiothreotol (DTT), 1 mg/mL bovine serum albumin (BSA), 1 mM ATP, 1 mM NAD, and 12 mM glucose, 10 units per mL glucose-6-phosphate dehydrogenase, and +/−300 ng per mL GK. For determination of the affinity (Km) and Vmax, different concentrations of glucose ranging from 0.5 mM to 40 mM were used in the assay; see Grimsby, J., Sarabu, R.; Grippo, J. F.; et. al. Science 2003, 301, 370-373. Production of reduced NAD (Nicotinamide Adenine Dinucleotide) was measured as changes in absorption at 340 nm in 96-well plate reader (Envision model #2101 Multilabel Plate reader). % Activation @ 50 μM was calculated as the percentage increase in GK activity above the vehicle control with the effective concentration of the compound being 50 μM. EC50% (μM) was calculated as the effective concentration of the compound that produces 50% activation above the vehicle control, and EC100% (μM) was calculated as the effective concentration of the compound that produces 100% activation above the vehicle control.

[2] = target: T2, Pancreas GK (Homo sapiens, UniProt P35557); assay: Glucokinase enzyme assay, pancreas GK; assay type: biochemical; details: for EC50: concentration that produces 50% activation above the vehicle control; for EC100%: concentration that produces 100% activation above the vehicle control; for activation at 50 µM: percentage increase in GK activity above vehicle control, compound 50 μM, 12 mM glucose
T2 construct: (His)6; made in house; host or cells: Escherichia coli
T2 sequence (P35557 1-465): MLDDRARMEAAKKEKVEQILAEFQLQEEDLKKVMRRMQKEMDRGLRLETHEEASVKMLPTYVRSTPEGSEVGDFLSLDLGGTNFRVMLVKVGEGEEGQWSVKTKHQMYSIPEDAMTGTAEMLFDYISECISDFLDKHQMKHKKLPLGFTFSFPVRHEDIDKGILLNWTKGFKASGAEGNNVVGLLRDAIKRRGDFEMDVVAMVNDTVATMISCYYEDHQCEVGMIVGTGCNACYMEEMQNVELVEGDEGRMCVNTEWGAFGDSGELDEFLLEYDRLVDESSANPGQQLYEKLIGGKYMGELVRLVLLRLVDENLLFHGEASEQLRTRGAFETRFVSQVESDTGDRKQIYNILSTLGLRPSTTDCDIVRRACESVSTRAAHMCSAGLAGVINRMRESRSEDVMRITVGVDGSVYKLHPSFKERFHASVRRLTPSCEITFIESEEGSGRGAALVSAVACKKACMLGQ
Source text: as §1, §2

Compound	EC50 [1]	EC100% [1]	EC50 [2]	EC100% [2]	activation at 50 µM [1]	activation at 50 µM [2]
COc1ccc(CN2C(=O)C=C(C)C2SCC(=O)Nc2ccccn2)cc1 (stereo not drawn) [Compound 19, 2-[1-(4-Methoxy-benzyl)-3-methyl-5-oxo-2,5-dihydro-1H-pyrrol-2-ylsulfanyl]-N-pyridin-2-yl-acetamide]	13.8 µM	30.5 µM	15.2 µM	47.3 µM		
CC1=C(C)C(SCC(=O)Nc2ccccn2)N(Cc2ccc3c(c2)CCO3)C1=O (stereo not drawn) [Compound 20, 2-[1-(2,3-Dihydro-benzofuran-5-ylmethyl)-3,4-dimethyl-5-oxo-2,5-dihydro-1H-pyrrol-2-ylsulfanyl]-N-pyridin-2-yl-acetamide]	2.78 µM	6.61 µM	3.23 µM	8.87 µM		
CC1=C(C)C(SCC(=O)Nc2ccccn2)N(Cc2cccs2)C1=O (stereo not drawn) [Compound 24, 2-(3,4-Dimethyl-5-oxo-1-thiophen-2-ylmethyl-2,5-dihydro-1H-pyrrol-2-ylsulfanyl)-N-pyridin-2-yl-acetamide]	8.4 µM	26.7 µM	13.6 µM	37.3 µM	172%	124%
COC(=O)c1ccc(NC(=O)COC2C(C)=C(C)C(=O)N2Cc2ccc(OC)cc2)nc1 (stereo not drawn) [Compound 27, 6-{2-[1-(4-Methoxy-benzyl)-3,4-dimethyl-5-oxo-2,5-dihydro-1H-pyrrol-2-yloxy]-acetylamino}-nicotinic acid methyl ester]	14.1 µM	>50 µM	20 µM	>50 µM	90%	
COc1ccc(CN2C(=O)C(C)=C(C)C2OCC(=O)Nc2ccccn2)cc1 (stereo not drawn) [Compound 30, 2-[1-(4-Methoxy-benzyl)-3,4-dimethyl-5-oxo-2,5-dihydro-1H-pyrrol-2-yloxy]-N-pyridin-2-yl-acetamide]	34.5 µM	>50 µM	> 50 µM	>50 µM		
COc1ccc(CN2C(=O)C(C)=C(C)C2OCC(=O)Nc2nccs2)cc1 (stereo not drawn) [Compound 31, 2-[1-(4-Methoxy-benzyl)-3,4-dimethyl-5-oxo-2,5-dihydro-1H-pyrrol-2-yloxy]-N-thiazol-2-yl-acetamide]					21%	3%

Second part, the compound after the results:

EC50 [1]	EC100% [1]	EC50 [2]	EC100% [2]	activation at 50 µM [1]	activation at 50 µM [2]	Compound
4.73 µM	12.68 µM	7.12 µM	19.43 µM			COc1ccc(CN2C(=O)C(C)=C(C)C2SCC(=O)Nc2cc(C)ccn2)cc1 (stereo not drawn) [Compound 21, 2-[1-(4-Methoxy-benzyl)-3,4-dimethyl-5-oxo-2,5-dihydro-1H-pyrrol-2-ylsulfanyl]-N-(4-methyl-pyridin-2-yl)-acetamide]
17.3 µM		24.1 µM		82%	70%	CCc1ccnc(NC(=O)CSC2C(C)=C(C)C(=O)N2Cc2ccc(OC)cc2)c1 (stereo not drawn) [Compound 22, N-(4-Ethyl-pyridin-2-yl)-2-[1-(4-methoxy-benzyl)-3,4-dimethyl-5-oxo-2,5-dihydro-1H-pyrrol-2-ylsulfanyl]-acetamide]
6.23 µM	13.78 µM	8.13 µM	20.28 µM			COc1ccc(CN2C(=O)C(C)=C(C)C2SCC(=O)Nc2cccc(C)n2)cc1 (stereo not drawn) [Compound 23, 2-[1-(4-Methoxy-benzyl)-3,4-dimethyl-5-oxo-2,5-dihydro-1H-pyrrol-2-ylsulfanyl]-N-(6-methyl-pyridin-2-yl)-acetamide]
6.3 µM	28.5 µM	14.7 µM	44.9 µM	180%	130%	CC1=C(C)C(SCC(=O)Nc2ccccn2)N(Cc2ccc(C(C)C)cc2)C1=O (stereo not drawn) [Compound 25, 2-[1-(4-Isopropyl-benzyl)-3,4-dimethyl-5-oxo-2,5-dihydro-1H-pyrrol-2-ylsulfanyl]-N-pyridin-2-yl-acetamide]
15.3 µM	35.9 µM	24 µM		154%	102%	CCc1ccc(CN2C(=O)C(C)=C(C)C2SCC(=O)Nc2ccccn2)cc1 (stereo not drawn) [Compound 26, 2-[1-(4-Ethyl-benzyl)-3,4-dimethyl-5-oxo-2,5-dihydro-1H-pyrrol-2-ylsulfanyl]-N-pyridin-2-yl-acetamide]
14.2 µM	>50 µM	18.5 µM	>50 µM	90%		COc1ccc(CN2C(=O)C(C)=C(C)C2OCC(=O)Nc2ccc(C)cn2)cc1 (stereo not drawn) [Compound 28, 2-[1-(4-Methoxy-benzyl)-3,4-dimethyl-5-oxo-2,5-dihydro-1H-pyrrol-2-yloxy]-N-(5-methyl-pyridin-2-yl)-acetamide]
7.7 µM	26.1 µM	11.8 µM	41.4 µM			COc1cc(CN2C(=O)C(C)=C(C)C2SCC(=O)Nc2ccccn2)cc(OC)c1 (stereo not drawn) [Compound 29, 2-[1-(3,5-Dimethoxy-benzyl)-3,4-dimethyl-5-oxo-2,5-dihydro-1H-pyrrol-2-ylsulfanyl]-N-pyridin-2-yl-acetamide]
